39 molecules from PubChem BioAssay AID1159564 (GlaxoSmithKline (GSK), 2015) can be followed below.

Each structure is given as a SMILES string. The source made the active and inactive calls. No rule for the calls is given here. Where only a bound is given, the exact number is not on record here.

The subject of this experiment is L. donovani-infected THP-1 macrophages, intracellular amastigote imaging. Description: intracellular L. donovani amastigote inhibition, imaging, THP-1 host macrophages, host toxicity (AID 1159564).
Setting [1] is: measured here: THP-1 host cell toxicity.
Where [2] appears, read: measured here: amastigotes per macrophage.

With `O=C(NCc1ccncc1)c1ccccc1N1CCCN(C(=O)Cc2ccc(F)c(F)c2)CC1`, the IC50 (as a rule, the concentration that inhibits the measured activity by half) was > 50 µM (inactive). The IC50 under setting [1] is greater than 50 µM. This molecule also displayed an IC50 under setting [2] greater than 50 µM.
Consider `CCc1cccc(-n2nc(OCC(=O)NC3CCCC3)c3cccnc32)c1`, for which the IC50 was 1 µM. The IC50 under setting [1] was less than 50 µM. In addition, the IC50 under setting [2] came to 1.3 µM.
For the molecule `N#Cc1cnc(Nc2cccc(CCN3CCOCC3)c2)nc1Nc1ccccc1C(N)=O`, the IC50 was 1.6 µM. In addition, the IC50 under setting [1] was found to be 0.79 µM. The IC50 under setting [2] was determined as 1 µM.
Taken in the same sequence, the figures for `CCN(Cc1nc2ccc(C(=O)N3CCN(c4ncccn4)CC3)cc2[nH]1)C1CCCc2cccnc21` (configuration not stated) were 4 µM, 20 µM and 1.6 µM.
Consider `CC(c1ccccn1)N(C)Cc1nc2ccccc2n1C(C)C` (configuration not stated), for which the IC50 is 3.2 µM. Under setting [1], the IC50 was 16 µM. Also, under setting [2], the IC50 turned out to be 2 µM.
In the same order, the values of `CCn1nccc1CN(C)C(=O)C=Cc1ccc(Cl)cc1` are > 50 µM (inactive), greater than 50 µM and greater than 50 µM.
In the same order, the values of `Cc1ccc(S(=O)(=O)Nc2ccc(CN3CCN(C(=O)c4cccc(C#N)c4)CC3)cc2)cc1` are > 50 µM (inactive), greater than 50 µM and 25 µM.
In the case of `CNC(=O)C1Cc2ccccc2N1C(=O)Cc1ccccc1` (configuration not stated), the IC50 was > 50 µM (inactive). Further, under setting [1], the IC50 is greater than 50 µM. Under setting [2], this molecule showed an IC50 greater than 50 µM.
For `Cc1cc2cncn2c(C2CCCCN2C(=O)c2cccs2)n1` (configuration not stated), the IC50 is > 50 µM (inactive). This molecule displayed an IC50 under setting [1] greater than 50 µM. The same molecule had an IC50 under setting [2] greater than 50 µM.
Regarding `Nc1nc(-c2ccccn2)nc(-n2nc(-c3ccccc3)cc2N)n1`, the IC50 was 0.79 µM. Further, the IC50 under setting [1] came to 10 µM. This molecule yielded an IC50 under setting [2] of 0.79 µM.
For `Cn1ccnc1-c1nc(NCc2ccccc2Cl)cc(C2CC2)n1`, the IC50 was 0.63 µM. This molecule also registered an IC50 under setting [1] of 7.9 µM. Besides, under setting [2], the IC50 was determined as 0.2 µM.
In the same order, the values of `c1ccc(-c2nc(NCc3ccco3)c3ccccc3n2)nc1` are 2.5 µM, 32 µM and 2.5 µM.
In the same order, the values of `COC(=O)c1ccc(-c2cnc3ccc(NCc4ccccn4)nn23)cc1` are > 50 µM (inactive), 13 µM and 16 µM.
In the same order, the values of `N#CN1CC[C@@H](NC(=O)Nc2ccccc2Oc2ccccc2)C1` are 5 µM, 25 µM and 4 µM.
Consider `O=S(=O)(c1cccc(CSc2nnc(-c3ccc4c(c3)OCO4)o2)c1)N1CCOCC1`, for which the IC50 was 0.79 µM. The molecule further came in with an IC50 under setting [1] greater than 50 µM. The same molecule showed an IC50 under setting [2] of 0.25 µM.
In the same order, the values of `NC(=O)c1cc(F)ccc1Nc1nc(NC2CCC(O)CC2)ncc1Br` (configuration not stated) are 0.79 µM, 0.4 µM and 0.63 µM.
In the same order, the values of `CC1CN(S(=O)(=O)c2ccc(NC(=O)c3cc(C4CC4)nc4c3cnn4C(C)C)cc2)CC(C)O1` (configuration not stated) are > 50 µM (inactive), 10 µM and greater than 50 µM.
In the same order, the values of `Clc1ccc(C(CC2CCCCO2)Cn2cncn2)c(Cl)c1` (configuration not stated) are > 50 µM (inactive), greater than 50 µM and greater than 50 µM.
With `CNc1cncc(C2CCCN2C(=O)Cc2ccc3ccccc3c2)n1` (configuration not stated), the IC50 is > 50 µM (inactive). Under setting [1], this molecule displayed an IC50 greater than 50 µM. For the same molecule, the IC50 under setting [2] was greater than 50 µM.
For `CN(C)CCN(C)Cc1ccc(Cl)cc1NS(=O)(=O)c1ccc(Cl)c(Cl)c1`, the IC50 is 6.3 µM. This molecule also returned an IC50 under setting [1] of 32 µM. Under setting [2], this molecule displayed an IC50 of 4 µM.
In the same order, the values of `O=C(CCCn1cnc([N+](=O)[O-])n1)Nc1cccc(Cl)c1` are > 50 µM (inactive), greater than 50 µM and greater than 50 µM.
In the same order, the values of `COc1ccc(S(=O)(=O)Nc2ccc(CN3CCN(C(=O)c4cccc(C#N)c4)CC3)cc2)cc1` are > 50 µM (inactive), greater than 50 µM and greater than 50 µM.
Taken in the same sequence, the figures for `Cc1nn(-c2nc3ccccc3[nH]2)c2c1C(c1ccc(O)cc1)CC(=O)N2` (configuration not stated) were 1 µM, 6.3 µM and 0.5 µM.
Turning to `Cc1ccc(CNC2CCN(C[C@@H]3Cn4c(=O)ccc5ccc(=O)n3c54)CC2)cc1F`, the IC50 is > 50 µM (inactive). Moreover, the IC50 under setting [1] was greater than 50 µM. The same molecule had an IC50 under setting [2] greater than 50 µM.
Take `O=c1cc(NCCCNCc2cc(C(F)(F)F)cs2)[nH]c2ccccc12`: the IC50 is 40 µM. Under setting [1], this molecule had an IC50 of 20 µM. Under setting [2], this molecule returned an IC50 of 25 µM.
On to `COCc1cnc2c(c1SCc1c(F)cccc1Cl)c(=O)n(C)c(=O)n2C`, for which the IC50 is 5 µM. Besides, the IC50 under setting [1] is greater than 50 µM. This molecule also registered an IC50 under setting [2] of 5 µM.
Regarding `COc1ccc(-c2nc3ncccc3o2)cc1NC(=O)c1cccs1`, the IC50 was > 50 µM (inactive). The same molecule showed an IC50 under setting [1] of 20 µM. Besides, under setting [2], the IC50 was greater than 50 µM.
Taken in the same sequence, the figures for `c1ccc2[nH]c(-c3ccc(N4CCCC4)nc3)nc2c1` were > 50 µM (inactive), 32 µM and greater than 50 µM.
`COc1ccc(-c2ccc3nnc(-c4ccc(O)c(OC)c4)n3c2)cn1`: the IC50 was > 50 µM (inactive). Moreover, under setting [1], the IC50 is greater than 50 µM. Under setting [2], this molecule gave an IC50 greater than 50 µM.
For the molecule `CN(C)Cc1ccc(-c2ccc(S(=O)(=O)NCC3CCCO3)c(F)c2)cc1` (configuration not stated), the IC50 is > 63 µM (inactive). Under setting [1], this molecule registered an IC50 of 63 µM. The molecule also yielded an IC50 under setting [2] greater than 63 µM.
Taken in the same sequence, the figures for `O=C(Cn1cnc2cc([N+](=O)[O-])ccc2c1=O)NCCc1ccc(Cl)cc1Cl` were > 50 µM (inactive), greater than 50 µM and greater than 50 µM.
Taken in the same sequence, the figures for `COc1ccc(CNc2nsc3ccccc23)cc1OC` were 6.3 µM, 25 µM and 5 µM.
Taken in the same sequence, the figures for `O=C(NCCc1cccnc1)c1csc(-c2ccccc2)n1` were > 50 µM (inactive), greater than 50 µM and greater than 50 µM.
In the case of `COc1cc2c(cc1OC)[C@H]1[C@@H](C)c3ccc(OC)c(OC)c3CN1CC2`, the IC50 is 20 µM. The molecule further returned an IC50 under setting [1] greater than 50 µM. Besides, the IC50 under setting [2] stood at 16 µM.
Taken in the same sequence, the figures for `CCCc1nc2nc(N)nc(N)c2cc1CC` were 40 µM, greater than 50 µM and 40 µM.
In the same order, the values of `O=S(=O)(NCC(c1cccnc1)N1CCN(c2ccc(F)cc2)CC1)c1cccs1` (configuration not stated) are > 50 µM (inactive), greater than 50 µM and greater than 50 µM.
Turning to `NS(=O)(=O)c1ccc(CNC(=O)c2ccc([N+](=O)[O-])s2)cc1`, the IC50 was 25 µM. Further, the IC50 under setting [1] was determined as 40 µM. Further, the IC50 under setting [2] was found to be 13 µM.
In the same order, the values of `Cc1cc(Nc2ccc(C#N)c(Cl)c2C)n[nH]1` are > 50 µM (inactive), 20 µM and greater than 50 µM.
Taken in the same sequence, the figures for `Cc1ccccc1NS(=O)(=O)c1ccc2[nH]cc(C(=O)NC3CCCC3)c(=O)c2c1` were > 50 µM (inactive), 32 µM and 40 µM.
